Biological target: Angiotensin II receptor
Experiment: In vitro angiotensin II mesenteric artery receptor binding assay (test 1)
Settings: rat mesenteric artery membrane fraction, 0.2 nM 125I-Ang II, 22°C, 90 minutes
Protocol: I) In vitro angiotensin II mesenteric artery receptor binding assay
According to the method (1) by Gunther et al., a membrane fraction was prepared from mesenteric artery of male rat, […] protein equivalent of it and 0.2 nM ^125I-Ang II as well as various concentrations of test compounds were incubated at 22°C for 90 minutes in an incubation buffer (50 mM Tris-HCl, 120 mM NaCl, 5 mM MgCl2. 0.25% bovine serum albumin, pH 7.2) (reaction volume; 200 µl). The incubated was cooled, and the reaction was stopped by addition of ice-cooled phosphate buffer (10 mM phosphate, 140 mM NaCI, pH 7.4, hereinafter referred to as PBS), and then the reaction solution was filtered through a glass fiber filter (Whatman CF/B), the filter was washed, dried, and then the radioactivity of captured ^125I-angiotensin II which bound to the receptor was measured by a γ-counter. Non-specific bound amount was obtained from the reaction in the presence of 1 µM of unlabeled angiotensin II. […] Res., 17:278-286, 1980].

Molecule	IC50 [nM]
2-n-butyl-5-hydroxymethyl-8-methyl-5,6,7,8-tetrahydro-1H,4H-1,3,4a,8a-tetraza-cyclopentanaphthalene-9-one [Compound No. 541]	> 100
2-n-butyl-8-hydroxymethyl-5-methyl-5,6,7,8-tetrahydro-1H,4H-1,3,4a,8a-tetraza-cyclopentanaphthalene-9-one [Compound No. 542]	34
CCCCc1nc2c(=O)n3n(c(=O)c2n1Cc1ccc(-c2ccccc2-c2nn[nH]n2)cc1)CCCC3 [Compound No. 47, 2-n-butyl-5,6,7,8-tetrahydro-1-[(2'-(1H-tetrazol-5-yl)biphenyl-4-yl)methyl]-1H-1,3,4a,8a-tetraza-cyclopentanaphthalene-4,9-dione]	5.3
CCCc1nc2c(=O)n3n(c(=O)c2n1Cc1ccc(-c2ccccc2-c2nn[nH]n2)cc1)CC(C)=C(C)C3 [Compound No. 67, 5,8-dihydro-6,7-dimethyl-2-n-propyl-1-[(2'-(1H-tetrazol-5-yl)biphenyl-4-yl)methyl]-1H-1,3,4a,8a-tetraza-cyclopentanaphthalene-4,9-dione]	14
CCCCc1nc2c(=O)n3n(c(=O)c2n1Cc1ccc(-c2ccccc2-c2nn[nH]n2)cc1)C1(C(=O)OC)CCC3CC1 [Compound No. 156, methyl 2-n-butyl-5,8-ethano-4,9-dioxo-5,6,7,8-tetrahydro-1-[{2'-(1H-tetrazol-5-yl)biphenyl-4-yl}methyl]-1H-1,3,4a,8a-tetraza-cyclopentanaphthalene-8-carboxylate]	69
CCCCc1nc2c(=O)n3n(c(=O)c2n1Cc1ccc(-c2ccccc2-c2nn[nH]n2)cc1)C1CCC3(C(=O)OC)CC1 [Compound No. 159, methyl 2-n-butyl-5,8-ethano-4,9-dioxo-5,6,7,8-tetrahydro-1-[{2'-(1H-tetrazol-5-yl)biphenyl4-yl}methyl]-1H-1,3,4a,8a-tetraza-cyclopentanaphthalene-5-carboxylate]	5.1
CCCCc1nc2c(=O)n3n(c(=O)c2n1Cc1ccc(-c2ccccc2-c2nn[nH]n2)cc1)C1(C(=O)OCC)CCC3CC1 [Compound No. 198, ethyl 2-n-butyl-4,9-dioxo-5,8-ethano-5,6,7,8-tetrahydro-1-[{2'-(1H-tetrazol-5-yl)biphenyl-4-yl}methyl]-1H-1,3,4a,8a-tetraza-cyclopentanaphthalene-8-carboxylate]	> 100
CCCc1nc2c(=O)n3n(c(=O)c2n1Cc1ccc(-c2ccccc2-c2nnn[nH]2)cc1)C(C(=O)N(CC)CC)CCC3C (stereo not shown) [Compound No. 205, 4,9-dioxo-5-methyl-2-n-propyl-5,6,7,8-tetrahydro-1-[{2'-(1H-tetrazol-5-yl)biphenyl-4-yl}methyl]-1H-1,3,4a,8a-tetraza-cyclopentanaphthalene-8-carboxy-N,N-diethylamide]	47
CCCc1nc2c(=O)n3n(c(=O)c2n1Cc1ccc(-c2ccccc2-c2nnn[nH]2)cc1)C(C(=O)NC(C)(C)C)CCC3C (stereo not shown) [Compound No. 209, 4,9-dioxo-5-methyl-2-n-propyl-5,6,7,8-tetrahydro-1-[{2'-(1H-tetrazol-5-yl)biphenyl-4-yl}methyl]-1H-1,3,4a,8a-tetraza-cyclopentanaphthalene-8-carboxy-N-t-butylamide]	58
CCCCc1nc2c(=O)n3n(c(=O)c2n1Cc1ccc(-c2ccccc2-c2nnn[nH]2)cc1)C(C(=O)NC(C)(C)C)CCC3C (stereo not shown) [Compound No. 210, 2-n-butyl-4,9-dioxo-5-methyl-5,6,7,8-tetrahydro-1-[{2'-(1H-tetrazol-5-yl)biphenyl-4-yl}methyl]-1H-1,3,4a,8a-tetraza-cyclopentanaphthalene-8-carboxy-N-t-butylamide]	29
CCCc1nc2c(=O)n3n(c(=O)c2n1Cc1ccc(-c2ccccc2-c2nnn[nH]2)cc1)C1(COCC(=O)OC(C)(C)C)CCC3CC1 [Compound No. 225, 8-t-butoxycarboxylmethoxymethyl-5,8-ethano-2-n-propyl-5,6,7,8-tetrahydro-1-[{2'-(1H-tetrazol-5-yl)biphenyl-4-yl}methyl]-1H-1,3,4a,8a-tetraza-cyclopentanaphthalene-4,9-dione]	66
CCCc1nc2c(=O)n3n(c(=O)c2n1Cc1ccc(-c2ccccc2-c2nnn[nH]2)cc1)C1CCC3(COCC(C)O)CC1 (stereo not shown) [Compound No. 227, 5,8-ethano-5-(2-hydroxypropyl)methoxynethyl-2-n-propyl-5,6,7,8-tetrahydro-1-[{2'-(1H-tetrazol-5-yl)biphenyl-4-yl}methyl]-1H-1,3,4a,8a-tetraza-cyclopentanaphthalene-4,9-dione]	38
CCCc1nc2c(=O)n3n(c(=O)c2n1Cc1ccc(-c2ccccc2-c2nnn[nH]2)cc1)C1(COCC(C)O)CCC3CC1 (stereo not shown) [Compound No. 229, 5,8-ethano-8-(2-hydroxypropyl)methoxymethyl-2-n-propyl-5,6,7,8-tetrahydro-1-[{2'-(1H-tetrazol-5-yl)biphenyl-4-yl}methyl]-1H-1,3,4a,8a-tetraza-cyclopentanaphthalene-4,9-dione]	8.7
CCCc1nc2c(=O)n3n(c(=O)c2n1Cc1ccc(-c2ccccc2-c2nn[nH]n2)cc1)C1(C(=O)N(CC)CC)CCC3CC1 [Compound No. 233, 4,9-dioxo-5,8-ethano-2-n-propyl-5,6,7,8-tetrahydro-1-[{2'-(1H-tetrazol-5-yl)biphenyl-4-yl}methyl]-1H-1,3,4a,8a-tetraza-cyclopentanaphthalene-8-carboxy-N,N-diethylamide]	> 100
CCCCc1nc2c(=O)n3n(c(=O)c2n1Cc1ccc(-c2ccccc2-c2nn[nH]n2)cc1)C1(C(=O)NC(C)(C)C)CCC3CC1 [Compound No. 238, 2-n-butyl-4,9-dioxo-5,8-ethano-5,6,7,8-tetrahydro-1-[{2'-(1H-tetrazol-5-yl)biphenyl-4-yl}methyl]-1H-1,3,4a,8a-tetraza-cyclopentanaphthalene-8-carboxy-N-t-butylamide]	> 100
CCCc1nc2c(=O)n3n(c(=O)c2n1Cc1ccc(-c2ccccc2-c2nn[nH]n2)cc1)C1CCC3(C(=O)N(CCO)CCO)CC1 [Compound No. 239, 4,9-dioxo-5,8-ethano-2-n-propyl-5,6,7,8-tetrahydro-1-[{2'-(1H-tetrazol-5-yl)biphenyl-4-yl}methyl]-1H-1,3,4a,8a-tetraza-cyclopentanaphthalene-5-carboxy-N,N-bis(2-hydroxyethyl)amide]	> 100
CCCc1nc2c(=O)n3n(c(=O)c2n1Cc1ccc(-c2ccccc2-c2nn[nH]n2)cc1)C1(C(=O)N(CCO)CCO)CCC3CC1 [Compound No. 241, 4,9-dioxo-5,8-ethano-2-n-propyl-5,6,7,8-tetrahydro-1-[{2'-(1H-tetrazol-5-yl)biphenyl-4-yl}methyl]-1H-1,3,4a,8a-tetraza-cyclopentanaphthalene-8-carboxy-N,N-bis(2-hydroxyethyl)amide]	25
CCCc1nc2c(=O)n3n(c(=O)c2[nH]1)C(C)CCC3C (stereo not shown) [Compound No. 280, 5,8-dimethyl-2-n-propyl-5 6,7,8-tetrahydro-1H-1,3,4a,8a-tetraza-cyclopentanaphthalene-4,9-dione]	4.6
CCCc1nc2c(=O)n3n(c(=O)c2[nH]1)C1CCC3(C(C)(C)O)CC1 [Compound No. 323, 5,8-ethano-5-(1-hydroxy-1-methylethyl)-2-n-propyl-5,6,7,8-tetrahydro-1H-1,3,4a,8a-tetraza-cyclopentanaphthalene-4,9-dione]	> 100
CCCc1nc2c(=O)n3n(c(=O)c2n1Cc1ccc(-c2ccccc2-c2nn[nH]n2)cc1)C(C)CCC3c1nc(C)no1 (stereo not shown) [Compound No. 329, 8-methyl-5-(3-methyloxadiazol-5-yl)-2-n-propyl-5,6,7,8-tetrahydro-1-[{2'-(1H-tetrazol-5-yl)biphenyl-4-yl}methyl]-1H-1,3,4a,8a-tetraza-cyclopentanaphthalene-4,9-dione]	65
CCCc1nc2c(=O)n3n(c(=O)c2n1Cc1ccc(-c2ccccc2-c2nn[nH]n2)cc1)C(c1nc(C)no1)CCC3C (stereo not shown) [Compound No. 331, 5-methyl-8-(3-methyloxadiazol-5-yl)-2-n-propyl-5,6,7,8-tetrahydro-1-[{2'-(1H-tetrazol-5-yl)biphenyl-4-yl}methyl]-1H-1,3,4a,8a-tetraza-cyclopentanaphthalene-4,9-dione]	3.9
CCCc1nc2c(=O)n3n(c(=O)c2n1Cc1ccc(-c2ccccc2-c2nn[nH]n2)cc1)CC(CC)=C(CC)C3 [Compound No. 359, 6,7-diethyl-5,8-dihydro-2-n-propyl-5,6,7,8-tetrahydro-1-[{2'-(1H-tetrazol-5-yl)biphenyl-4-yl}methyl]-1H-1,3,4a,8a-tetraza-cyclopentanaphthalene-4,9-dione]	35
CCCc1nc2c(n1Cc1ccc(-c3ccccc3-c3nn[nH]n3)cc1)C(=O)N1CC(C)C(C)CN1C2 (stereo not shown) [Compound No. 378, 6,7-dimethyl-2-n-propyl-5,6,7,8-tetrahydro-1-[{2'-(1H-tetrazol-5-yl)biphenyl-4-yl}methyl]-1H,4H-1,3,4a,8a-tetraza-cyclopentanaphthalene-9-one]	4.6
CCCc1nc2c(n1Cc1ccc(-c3ccccc3-c3nn[nH]n3)cc1)C(=O)N1CC(C)=C(C)CN1C2 [Compound No. 382, 5,8-dihydro-6,7-dimethyl-2-n-propyl-1-[{2'-(1H-tetrazol-5-yl)biphenyl-4-yl}methyl]-1H,4H-1,3,4a,8a-tetraza-cyclopentanaphthalene-9-one]	26
CCCc1nc2c(n1Cc1ccc(-c3ccccc3-c3nn[nH]n3)cc1)C(=O)N1CC(CC)=C(CC)CN1C2 [Compound No. 390, 6,7-diethyl-5,8-dihydro-2-n-propyl-1-[{2'-(1H-tetrazol-5-yl)biphenyl-4-yl}methyl]-1H,4H-1,3,4a,8a-tetraza-cyclopentanaphthalene-9-one]	35

From EP0609289B1, “IMIDAZOLE DERIVATIVES AND PHARMACEUTICAL COMPOSITIONS CONTAINING THE SAME” (THE UPJOHN COMPANY, priority 1991, dated 1993)
